Assay results: PubChem BioAssay (NCI)
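Briefly, cells in 96-well plates were exposed to five compound concentrations for 48 h, and endpoints were estimated by linear interpolation. GI50: concentration for 50% inhibition of growth. TGI is the concentration that stops growth completely.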

Legend:
Assay in all cases: growth of human tumour cells (NCI), 48 h
786-0 renal = system: 786-0 renal
A498 renal = system: A498 renal
A549 NSCLC = system: A549 NSCLC
ACHN renal = system: ACHN renal
BT-549 breast = system: BT-549 breast
CAKI-1 renal = system: CAKI-1 renal
CCRF-CEM leukemia = system: CCRF-CEM leukemia
COLO 205 colon = system: COLO 205 colon
DU-145 prostate = system: DU-145 prostate
EKVX NSCLC = system: EKVX NSCLC
HCC-2998 colon = system: HCC-2998 colon
HCT-116 colon = system: HCT-116 colon
HCT-15 colon = system: HCT-15 colon
HOP-62 NSCLC = system: HOP-62 NSCLC
HS 578T breast = system: HS 578T breast
HT29 colon = system: HT29 colon
IGROV1 ovarian = system: IGROV1 ovarian
K-562 leukemia = system: K-562 leukemia
KM12 colon = system: KM12 colon
LOX IMVI melanoma = system: LOX IMVI melanoma
M14 melanoma = system: M14 melanoma
MALME-3M melanoma = system: MALME-3M melanoma
MCF7 breast = system: MCF7 breast
MDA-MB-231 breast = system: MDA-MB-231 breast
MDA-MB-435 = system: MDA-MB-435
MDA-MB-468 breast = system: MDA-MB-468 breast
MOLT-4 leukemia = system: MOLT-4 leukemia
NCI-H226 lung = system: NCI-H226 lung
NCI-H23 lung = system: NCI-H23 lung
NCI-H460 lung = system: NCI-H460 lung
OVCAR-3 ovarian = system: OVCAR-3 ovarian
OVCAR-4 ovarian = system: OVCAR-4 ovarian
OVCAR-5 ovarian = system: OVCAR-5 ovarian
OVCAR-8 ovarian = system: OVCAR-8 ovarian
PC-3 prostate = system: PC-3 prostate
RPMI-8226 leukemia = system: RPMI-8226 leukemia
RXF 393 renal = system: RXF 393 renal
SF-268 CNS = system: SF-268 CNS
SF-295 CNS = system: SF-295 CNS
SF-539 CNS = system: SF-539 CNS
SK-MEL-2 melanoma = system: SK-MEL-2 melanoma
SK-MEL-28 melanoma = system: SK-MEL-28 melanoma
SK-MEL-5 melanoma = system: SK-MEL-5 melanoma
SK-OV-3 ovarian = system: SK-OV-3 ovarian
SN12C renal = system: SN12C renal
SNB-19 CNS = system: SNB-19 CNS
SR leukemia = system: SR leukemia
SW-620 colon = system: SW-620 colon
TK-10 renal = system: TK-10 renal
UACC-257 melanoma = system: UACC-257 melanoma
UACC-62 melanoma = system: UACC-62 melanoma
UO-31 renal = system: UO-31 renal

## COc1ccc2[nH]cc(-c3cc4nc(-c5cn(C)c6ncc(Br)cc56)cc(N)n4n3)c2c1
786-0 renal
  GI50: 1770 nM
  TGI: 3290 nM
A498 renal
  GI50: 2220 nM
  TGI: 7010 nM
A549 NSCLC
  GI50: 1770 nM
  TGI: 5070 nM
ACHN renal
  GI50: 1460 nM
  TGI: 3350 nM
BT-549 breast
  GI50: 2140 nM
  TGI: 4670 nM
CAKI-1 renal
  GI50: 1410 nM
  TGI: 3540 nM
CCRF-CEM leukemia
  GI50: 2850 nM
  TGI: > 100000 nM
COLO 205 colon
  GI50: 1820 nM
  TGI: 3450 nM
DU-145 prostate
  GI50: 1780 nM
  TGI: 3640 nM
EKVX NSCLC
  GI50: 1660 nM
  TGI: 3840 nM
HCC-2998 colon
  GI50: 1740 nM
  TGI: 3170 nM
HCT-116 colon
  GI50: 1810 nM
  TGI: 3300 nM
HCT-15 colon
  GI50: 1350 nM
  TGI: 2810 nM
HOP-62 NSCLC
  GI50: 2070 nM
  TGI: 5490 nM
HS 578T breast
  GI50: 1800 nM
  TGI: 4580 nM
HT29 colon
  GI50: 1960 nM
  TGI: 3950 nM
IGROV1 ovarian
  GI50: 1650 nM
  TGI: 3430 nM
K-562 leukemia
  GI50: 2590 nM
  TGI: > 100000 nM
KM12 colon
  GI50: 1990 nM
  TGI: 4420 nM
LOX IMVI melanoma
  GI50: 1650 nM
  TGI: 3110 nM
M14 melanoma
  GI50: 1830 nM
  TGI: 3550 nM
MALME-3M melanoma
  GI50: 1680 nM
  TGI: 3170 nM
MCF7 breast
  GI50: 1670 nM
  TGI: 3050 nM
MDA-MB-231 breast
  GI50: 1650 nM
  TGI: 3360 nM
MDA-MB-435
  GI50: 1680 nM
  TGI: 3210 nM
MDA-MB-468 breast
  GI50: 1420 nM
  TGI: 2860 nM
MOLT-4 leukemia
  GI50: 2240 nM
  TGI: > 100000 nM
NCI-H226 lung
  GI50: 1950 nM
  TGI: 3970 nM
NCI-H23 lung
  GI50: 1760 nM
  TGI: 3510 nM
NCI-H460 lung
  GI50: 1800 nM
  TGI: 3470 nM
OVCAR-3 ovarian
  GI50: 1810 nM
  TGI: 3490 nM
OVCAR-4 ovarian
  GI50: 1840 nM
  TGI: 3790 nM
OVCAR-5 ovarian
  GI50: 1590 nM
  TGI: 3440 nM
OVCAR-8 ovarian
  GI50: 1860 nM
  TGI: 3660 nM
PC-3 prostate
  GI50: 2540 nM
  TGI: 10300 nM
RPMI-8226 leukemia
  GI50: 2910 nM
  TGI: > 100000 nM
RXF 393 renal
  GI50: 1730 nM
  TGI: 3230 nM
SF-268 CNS
  GI50: 1840 nM
  TGI: 4330 nM
SF-295 CNS
  GI50: 1570 nM
  TGI: 3070 nM
SF-539 CNS
  GI50: 1640 nM
  TGI: 3030 nM
SK-MEL-2 melanoma
  GI50: 1680 nM
  TGI: 3250 nM
SK-MEL-28 melanoma
  GI50: 1670 nM
  TGI: 3080 nM
SK-MEL-5 melanoma
  GI50: 1780 nM
  TGI: 3340 nM
SK-OV-3 ovarian
  GI50: 2380 nM
  TGI: 5640 nM
SN12C renal
  GI50: 1700 nM
  TGI: 3300 nM
SNB-19 CNS
  GI50: 2450 nM
  TGI: 6630 nM
SR leukemia
  GI50: 2740 nM
  TGI: > 100000 nM
SW-620 colon
  GI50: 1750 nM
  TGI: 3350 nM
TK-10 renal
  GI50: 2480 nM
  TGI: 6390 nM
UACC-257 melanoma
  GI50: 1720 nM
  TGI: 3480 nM
UACC-62 melanoma
  GI50: 1550 nM
  TGI: 3040 nM
UO-31 renal
  GI50: 1730 nM
  TGI: 4160 nM
